According to patent US20190177279A1, “CARBOXYLIC ACID AROMATIC 1,2-CYCLOPROPYLAMIDES” (Bayer Pharma Aktiengesellschaft, priority 2017, published 2019):

Key:
IL-6 secretion = assay: Bradykinin B1 receptor agonist-induced secretion of IL-6 in human IMR-90 cells; assay type: cell-based; conditions: 0.1 μM Lys-[Des-Arg9]Bradykinin and 0.1 μM Sar-[D-Phe8]-des-Arg9-Bradykinin, 5 hours
Excerpt: Inhibitory Activity on Bradykinin B1 Receptor Agonist-Induced Secretion of IL-6 and IL-8 in Human IMR-90 Cells
The effect of the compound examples on secretion of the cytokine IL-6 and IL-8 was investigated in the human foetal lung fibroblast IMR-90 cell line. Here the induction of the cytokine secretion was induced by the Bradykinin B1 receptor agonists Lys-[Des-Arg9]Bradykinin (CAS 71800-36-7, Tocris Bioscience) and Sar-[D-Phe8]-des-Arg9-Bradykinin (CAS 126959-88-4, Tocris Bioscience) leading to the activation of the Bradykinin B1-driven signalling pathway. […]
IMR-90 cells were cultured in Eagle's Minimum Essential Medium (EMEM) containing 2 mM L-glutamine, 1 g/L glucose, 1.5 g/L NaHCO3, 1 mM sodium pyruvate and non-essential amino acids (ATCC, 30-2003™) supplemented with 10% FBS (Biochrom, 50615) and 50 U/mL Penicillin, 50 μg/mL Streptomycin (PAA, P11-010). […] The compound examples were serially diluted in 100% DMSO and evaluated at 8 different concentrations within the range of 3 nM and 10 μM and a final DMSO concentration of 0.4%. […] The amount of IL-6 and IL-8 in the supernatant was determined using the Human ProInflammatory Panel II (4-Plex) (MSD, K15025B) according to manufacturer's instruction. […] The cell viability was measured using the CellTiter-Glo Luminescent Assay (Promega, G7571) following the manufacturers protocol. […]

[1] = molecular target: T1, native human B1 receptors (Homo sapiens, UniProt P46663); assay: Calcium flux assay (FLIPR) with IMR-90 human foetal lung fibroblasts after IL-1 induction; assay type: cell-based; conditions: IMR-90 fibroblasts induced with human IL-1; 0.1% BSA in assay buffer; agonist Lys-(Des-Arg)-Bradykinin at EC90; read-out: hB1 IC50 IMR90
T1 construct: which express native human B1 receptors after induction with human IL-1; Coriell Institute; host or cells: IMR-90 human foetal lung fibroblasts, induced with human IL-1
T1 sequence (P46663 1-353): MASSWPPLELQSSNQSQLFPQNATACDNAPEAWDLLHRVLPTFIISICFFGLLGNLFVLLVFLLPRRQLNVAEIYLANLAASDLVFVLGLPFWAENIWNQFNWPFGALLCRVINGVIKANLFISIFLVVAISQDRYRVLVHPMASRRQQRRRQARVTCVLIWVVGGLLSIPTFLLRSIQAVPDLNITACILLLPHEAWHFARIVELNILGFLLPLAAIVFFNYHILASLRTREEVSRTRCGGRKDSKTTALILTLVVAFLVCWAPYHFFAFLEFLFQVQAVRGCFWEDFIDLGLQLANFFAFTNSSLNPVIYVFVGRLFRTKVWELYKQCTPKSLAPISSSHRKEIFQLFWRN
Experimental: Calcium Flux Assay (FLIPR) with Human Fibroblasts for Bradykinin B1 Receptor Antagonist (hB1 IMR-90 IC50)
The Calcium flux Assay was carried out utilising IMR-90 human foetal lung fibroblasts (American Type Culture Collection, Rockville, Md.; and Coriell Institute, Camden, N.J.), which express native human B1 receptors after induction with human IL-1[…].
The fibroblasts were cultured in complete growth media comprised of Dulbecco's modified Eagle's medium (DMEM; Sigma) containing 10% foetal bovine serum, 4 mM L-glutamine, and 1% nonessential amino acids. The cells were maintained in a humidified atmosphere with 5% CO2 at 37° C. and were sub-cultured at a ratio of 1:3, every other day.
For the assay, IMR-90 fibroblasts were harvested using TrypLE Express (GIBCO/Invitrogen) and seeded into 384-well plates (Corning Cellbinding Surface, Cat. 3683) at a density of 15000 cells/well. The following day, cells were treated with 0.35 ng/mL human IL-1[…] in 10% FBS/MEM for 3 h to up-regulate B1 receptors. Induced cells were loaded with fluorescent calcium indicator by incubation with 2.5 μM Fluo-4/AM (Invitrogen) at 37° C., 5% CO2 for 2 h in the presence of 2.5 mM probenecid in 1% FBS/MEM. Extracellular dye was removed by washing with assay buffer (2.5 mM probenecid and 0.1% BSA in 20 mM HEPES/HBSS without bicarbonate or phenol red, pH 7.5). Example compounds were assayed at 8 concentrations in triplicate. After addition of example compounds to the cell plate and incubation for 30 min at 28° C., the addition of B1 agonist Lys-(Des-Arg)-Bradykinin (Bachem, Brackley) at a final concentration of EC90 was carried out on the FLIPR instrument while continuously monitoring Ca^2+-dependent fluorescence at 538 nm. A peptide antagonist Lys-(Des-Arg-Leu)-Bradykinin (Bachem, Brackley) at 20 μM was used to determine the full inhibition as control. IC50 values were determined by the same way described for the FLIPR assay with recombinant cells.

- IC50 (IL-6 secretion): 322 nM
- IC50 [1]: 66 nM
Compound: O=C(O)c1cc(NC(=O)C2CC2c2ccc(Cl)cc2)cc(F)c1-c1cnn(C2CCC2)c1 (racemic) [Example 2, 5-({[2-(4-chlorophenyl)cyclopropyl]carbonyl}amino)-2-(1-cyclobutyl-1H-pyrazol-4-yl)-3-fluorobenzoic acid]
